From PMC4806491, “The milk-derived fusion peptide, ACFP, suppresses the growth of primary human ovarian cancer cells by regulating apoptotic gene expression and signaling pathways” (BMC Cancer, 2016)
In brackets after ≈: the same amount, converted by molar mass. Where two headings read alike, the source gives them in different places. Residues, ends and D or L forms follow the SMILES beside them.

System: primary ovarian cancer cells
Format: cell-based, human
Conditions: for growth of human primary ovarian cells: different concentrations, in vitro, n=12, Figure S1
Description: Fresh primary ovarian tumor tissues that were assessed and classified as serous ovarian adenocarcinoma (III-IV grade) according to WHO criteria were collected from 53 ovarian cancer patients who underwent initial debulking surgery at the first affiliated hospital of Anhui Medical University between June 2012 and June 2014. All patients had not received adjuvant therapies, such as chemotherapy or radiotherapy, prior to surgery. For comparison, normal ovarian glandular epithelium cells (NOGECs) were cultured from fresh primary normal ovarian tissues harvested from 7 patients with uterine fibromas, which were confirmed as negative for any neoplastic disease by pathological examination. Prior to tissue deposition, all patients signed written consent forms confirming their donation of tissue for research purposes according to the Declaration of Helsinki. This study was approved by the Anhui Medical University Review Board. Tumor or normal ovarian tissues were cut into small 1.0 mm^3 pieces, rinsed two times in phosphate buffered saline (PBS) and digested with 0.25 % trypsin in a sterile centrifuge tube at 37 °C for 30 min. To obtain a single cell suspension cell, digested tissues were filtered with a 100 μm cell strainer. Cells were collected by centrifugation at 1000 rpm for five minutes, and the cell pellet was re-suspended in Dulbecco’s modified eagle medium (DMEM) supplemented with 10 % fetal bovine serum (FBS). Cells were subsequently cultured in DMEM containing 0.1 mg/L epidermal growth factor (EGF), 0.1 mg/L insulin-like growth factor (IGF) and 0.1 mg/L beta-estradiol with 10 % FBS in 5 % CO2 at 37 °C. Once cells reached 70 to 80 % confluence, cell culture medium was drained from the flask, and cells were digested with 0.25 % collagenase II until approximately 1/3 of the cells fell to the bottom of the dish by eye using a microscope. Due to their initial shedding, most fibroblasts were eliminated by collagenase digestion. The remaining cells were cultured in 5 % CO2 at 37 °C. To determine purity, cells were analyzed using immunofluorescence of cytokeratin 7 (for ovarian cancer cells) or cytokeratin 19 (for normal ovarian epithelium cells).
Primary ovarian cancer cells were seeded into 96-well plates in sextuplicate at a starting density of 5 × 10^3 cells/well and incubated with ACFP at the concentrations: 0 (as control), 5 × 10^−6, 5 × 10^−5, 5 × 10^−4, 5 × 10^−3, 5 × 10^−2, 5 × 10^−1 and 5 g/L for 24, 48 and 72 h, respectively. Cells treated with paclitaxel at 5 × 10^−4 g/L were included in the same plate as a positive control. Cell viability was later measured using the WST-1 (water-soluble tetrazolium 1) cell viability and cytotoxicity assay kit (Beyotime, Haimen, China) according to the manufacturer’s instructions. The percent viability of cells was calculated using the formula to calculate the cell viability ratio (VR): VR (%) = (the experimental group A450nm value/control group A450nm value) × 100 %. To assess general toxicity of ACFP, viability of normal ovarian cells treated with ACFP was assayed using the same procedure. The effect of ACFP was compared with LfcinB and PGPIPN (the products of Shanghai Sangon Biological Engineering Technology, China). Each experiment was performed in two independent sets.

SMILES	IC50, cell viability (24 h)	IC50, cell viability (48 h)	IC50, cell viability (72 h)	growth of human primary ovarian cells (48 h)
CC[C@H](C)[C@H](NC(=O)[C@@H]1CCCN1C(=O)CNC(=O)[C@@H]1CCCN1)C(=O)N1CCC[C@H]1C(=O)N[C@@H](CC(N)=O)C(=O)O [PGPIPN] (H-PGPIPN-OH)	14.5 mg/L (≈ 24.4 µM)	9.3 mg/L (≈ 15.7 µM)	1.24 mg/L (≈ 2.09 µM)	decreased growth
CC[C@H](C)[C@@H]1NC(=O)[C@H](CO)NC(=O)[C@@H]2CCCN2C(=O)[C@H](C)NC(=O)CNC(=O)[C@H](CC(C)C)NC(=O)[C@H](CCCCN)NC(=O)[C@H](CCCCN)NC(=O)[C@H](CCSC)NC(=O)[C@H](CCCNC(=N)N)NC(=O)[C@H](Cc2c[nH]c3ccccc23)NC(=O)[C@H](CCC(N)=O)NC(=O)[C@H](Cc2c[nH]c3ccccc23)NC(=O)[C@H](CCCNC(=N)N)NC(=O)[C@H](CCCNC(=N)N)NC(=O)[C@@H](NC(=O)[C@H](CCCCN)NC(=O)[C@@H](N)Cc2ccccc2)CSSC[C@@H](C(=O)N[C@H](C(=O)N[C@@H](CCCNC(=N)N)C(=O)N[C@@H](CCCNC(=N)N)C(=O)N[C@@H](C)C(=O)N[C@@H](Cc2ccccc2)C(=O)O)C(C)C)NC(=O)[C@H]([C@@H](C)O)NC1=O [LfcinB]				decreased growth
